Results published in US8080567B2, “EP2 receptor agonists” (Asterand UK Limited, priority 2005, dated 2011).

Legend:
human EP4 receptor = target: T1, human EP4 receptor (Homo sapiens, UniProt P35408); experiment: Binding ability to human EP receptors, [3H]PGE2 displacement, EP4; settings: membranes expressing human EP4 receptor; [3H]PGE2 1 nM; Cheng-Prusoff; read-out: pKi (M) EP4 (converted)
T1 construct: expressed in transfected cells; HEK-293 is named only for the cAMP assay
Protocol: (§1) Membranes were prepared from cells stably transfected with human EP receptor cDNA. In brief, cells were cultured to confluency, scraped from culture flasks, and centrifuged (800 g, 8 minutes, 4° C.). Cells were twice washed in ice cold homogenisation buffer containing 10 mM Tris-HCl, 1 mM EDTA.2Na, 250 mM sucrose, 1 mM PMSF, 0.3 mM indomethacin, pH 7.4, homogenised and re-centrifuged as before. The supernatant was stored on ice and pellets re-homogenised and re-spun. Supernatants were pooled and centrifuged at 40000 g, 10 minutes, 4° C. Resultant membrane pellets were stored at −80° C. until use.
(§2) For assay, membranes expressing human EP4, EP3, EP2 or EP1 receptors were incubated in Millipore (MHVBN45) plates containing assay buffer, radiolabelled [^3H]PGE2 and 0.1 to 10 000 nM concentrations of compounds. Incubations were performed at suitable temperatures and for suitable times to allow equilibrium to be reached. Non-specific binding was determined in the presence of 10 uM PGE2. Bound and free radiolabel was separated by vacuum manifold filtration using appropriate wash buffers, and bound radiolabel was determined by scintillation counting. Constituents of each of the buffers are included in table 1 below.
(§3) The affinity or pKi of each compound for each receptor was calculated from the concentration causing 50% radioligand displacement (IC50) using the Cheng-Prusoff equation: […]
(§4) This approach follows that set out in Kenakin, T. P., Pharmacologic analysis of drug receptor interaction. Raven Press, New York, 2nd edition.

human EP2 receptor = target: T2, human EP2 receptor (Homo sapiens, UniProt P43116); experiment: Binding ability to human EP receptors, [3H]PGE2 displacement, EP2; settings: membranes expressing human EP2 receptor; [3H]PGE2 3 nM; Cheng-Prusoff; read-out: pKi (M) EP2 (converted)
T2 construct: expressed in transfected cells; HEK-293 is named only for the cAMP assay
Protocol: as §1, §2, §3, §4

T1 sequence (P35408 whole entry): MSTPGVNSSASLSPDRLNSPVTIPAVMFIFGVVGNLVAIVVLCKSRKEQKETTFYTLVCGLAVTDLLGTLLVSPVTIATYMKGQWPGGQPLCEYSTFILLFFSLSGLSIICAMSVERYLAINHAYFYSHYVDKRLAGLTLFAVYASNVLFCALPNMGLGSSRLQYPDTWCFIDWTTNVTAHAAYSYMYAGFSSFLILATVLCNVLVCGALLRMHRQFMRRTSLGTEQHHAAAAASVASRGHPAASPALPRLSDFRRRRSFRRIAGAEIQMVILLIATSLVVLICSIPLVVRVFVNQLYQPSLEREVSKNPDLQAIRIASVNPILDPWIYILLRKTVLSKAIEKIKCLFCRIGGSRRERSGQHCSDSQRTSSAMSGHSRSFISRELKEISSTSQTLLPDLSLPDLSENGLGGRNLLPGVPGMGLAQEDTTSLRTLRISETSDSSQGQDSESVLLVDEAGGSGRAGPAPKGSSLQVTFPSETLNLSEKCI
T2 sequence (P43116 whole entry): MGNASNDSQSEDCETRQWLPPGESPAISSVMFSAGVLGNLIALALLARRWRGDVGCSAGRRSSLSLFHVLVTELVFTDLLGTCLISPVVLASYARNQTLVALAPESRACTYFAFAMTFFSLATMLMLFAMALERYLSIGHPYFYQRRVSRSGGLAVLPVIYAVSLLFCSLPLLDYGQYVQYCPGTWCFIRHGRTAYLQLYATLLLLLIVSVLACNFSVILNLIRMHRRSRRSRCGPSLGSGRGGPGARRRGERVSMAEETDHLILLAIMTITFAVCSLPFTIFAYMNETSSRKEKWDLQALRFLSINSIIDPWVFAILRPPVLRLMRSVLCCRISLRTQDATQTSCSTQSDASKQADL

Row | Compound | Ki (human EP4 receptor) [M] | Ki (human EP2 receptor) [M]
1 | O=C(O)C=Cc1cccc(CC(O)c2ccc(-c3ccccc3)o2)c1 (stereo not shown) [Compound 28, 3-{3-[2-Hydroxy-2-(5-phenyl-furan-2-yl)-ethyl]-phenyl}-acrylic acid] | > 1e-06 | < 1e-06
2 | O=C(O)C=Cc1ccc(F)c(NC(=O)c2ccc(-c3ccccc3)o2)c1 [Compound 45, 3-{4-Fluoro-3-[(5-phenyl-furan-2-carbonyl)-amino]-phenyl}-acrylic acid] | > 1e-06 | < 1e-07
3 | O=C(O)C=Cc1cccc(NC(=O)c2ccc(Oc3ccccc3)o2)c1 [Compound 5, 3-{3-[(5-Phenoxy-furan-2-carbonyl)-amino]-phenyl}-acrylic acid] | > 1e-06 | < 1e-07
4 | O=C(O)C=Cc1cccc(Sc2cccc(-c3ccccc3)n2)c1 [Compound 16, 3-[3-(6-Phenyl-pyridin-2-ylsulfanyl)-phenyl]-acrylic acid] | > 1e-06 | < 1e-06
5 | N=C(Nc1cccc(C=CC(=O)O)c1)c1cc(-c2ccccc2)ccc1F [Compound 58, 3-{3-[(4-Fluoro-biphenyl-3-carboximidoyl)-amino]-phenyl}-acrylic acid] | > 1e-06 | < 1e-06
6 | O=C(O)C=Cc1cccc(-c2nc3cc(-c4ccccc4)ccc3o2)c1 [Compound 34, 3-[3-(5-Phenyl-benzoxazol-2-yl)-phenyl]-acrylic acid] | > 1e-06 | < 1e-06
7 | O=C(O)C=Cc1cccc(NC(=O)c2ccc(C(=O)c3ccccc3)o2)c1 [Compound 11, 3-{3-[(5-Benzoyl-furan-2-carbonyl)-amino]-phenyl}-acrylic acid] | > 1e-06 | < 1e-07
8 | O=C(O)C=Cc1cccc(C=Cc2ccc(-c3ccccc3)o2)c1 [Compound 29, 3-{3-[2-(5-Phenyl-furan-2-yl)-vinyl]-phenyl}-acrylic acid] | > 1e-06 | < 1e-06
9 | O=C(O)C=Cc1cccc(NC(=O)c2ccc3oc4ccccc4c3c2)c1 [Compound 20, 3-{3-[(Dibenzofuran-2-carbonyl)-amino]-phenyl}-acrylic acid] | > 1e-06 | < 1e-07
10 | O=C(O)C=Cc1cccc(NC(=O)c2ccc(-c3ccccc3)o2)n1 [Compound 40, 3-{6-[(5-Phenyl-furan-2-carbonyl)-amino]-pyridin-2-yl}-acrylic acid] | > 1e-06 | < 1e-06
11 | O=C(O)C=Cc1ccc(Cl)c(NC(=O)c2cc(-c3ccccc3)ccc2F)c1 [Compound 52, 3-{4-Chloro-3-[(4-fluoro-biphenyl-3-carbonyl)-amino]-phenyl}-acrylic acid] | > 1e-07 | < 1e-08
